These results are taken from patent publication US20230348538A1, “METHOD FOR TREATMENT OF DRY EYE COMPRISNG APPLYING P55PIK INHIBITOR” (Wuhan Yicheng Biological Technology Co., Ltd., priority 2020, published 2023).

Type in all cases: in vivo, C57BL/6 mice
The subject of assay [1] is dry eye model induced by 0.2% benzalkonium chloride solution. As to the kind of experiment: Benzalkonium chloride dry eye model: corneal fluorescein sodium staining score. Particulars: for Corneal fluorescein staining scores (x ± s): total score of 16 points. The protocol: The healthy male C57BL/6 mice were kept in a controlled environment with a temperature of (25±1)° C., a relative humidity of (25±5)%, and light-dark cycles (9 AM-9 PM) with simulated dawn and dusk. Forty mice (80 eyes) were treated with 5 μL of 0.2% benzalkonium chloride solution twice a day (8:00 AM and 6:00 PM) for 14 days to induce dry eye symptoms, while the remaining ten mice (20 eyes) received no treatment and served as a baseline control. Modeling was carried out on the 15th day; and the dry eye rat models were screened based on tear film break-up time (BUT), fluorescein sodium staining of corneal, and Schirmer's test I for tear secretion. Fluorescein sodium staining was carried out to determine if there any epithelial damage in the corneal of mice; one drop of 1% fluorescein sodium solution was instilled into the conjunctival sac of the mouse eyes; after 1 minute, the corneal epithelial stained by fluorescein sodium was observed under the cobalt blue filter on the slit lamp. Scoring criteria: the cornea was divided into 4 quadrants; and a scoring system was used to assess the staining; each quadrant was given a score ranging from 0 to 4 points, with a total score of 16 points. A score of 0 indicated no staining; 1 point represented less than 30 punctate staining spots; 2 points represented more than 30 punctate staining spots but not diffuse; 3 points represented obviously diffuse staining but no patchy staining; 4 points represented patchy staining. […] Group A, the drug treatment group, was treated with the eye drops comprising 0.1% TAT-[…] peptide, four times a day; Group B, the solvent control group, was treated with eye drops without TAT-[…] peptide, four times a day; and Group C, the blank control group, received no treatment; on days 1, 4, and 7 after treatment, BUT, Schirmer's test I, and fluorescein sodium staining were performed; on the 7th day, the paraffin sections of the conjunctival fornix was stained by PAS stain; and the number of PAS-positive goblet cells was counted.

The test system is the same in assay [2]. Put plainly: Benzalkonium chloride dry eye model: conjunctival goblet cells (PAS staining). The protocol:
(§1) The healthy male C57BL/6 mice were kept in a controlled environment with a temperature of (25±1)° C., a relative humidity of (25±5)%, and light-dark cycles (9 AM-9 PM) with simulated dawn and dusk. Forty mice (80 eyes) were treated with 5 μL of 0.2% benzalkonium chloride solution twice a day (8:00 AM and 6:00 PM) for 14 days to induce dry eye symptoms, while the remaining ten mice (20 eyes) received no treatment and served as a baseline control. […] Group A, the drug treatment group, was treated with the eye drops comprising 0.1% TAT-[…] peptide, four times a day; Group B, the solvent control group, was treated with eye drops without TAT-[…] peptide, four times a day; and Group C, the blank control group, received no treatment; on days 1, 4, and 7 after treatment, BUT, Schirmer's test I, and fluorescein sodium staining were performed; on the 7th day, the paraffin sections of the conjunctival fornix was stained by PAS stain; and the number of PAS-positive goblet cells was counted.

Assay [3] shares this test system. As to the kind of experiment: Benzalkonium chloride dry eye model: tear film break-up time (BUT). How it is done:
as §1, with “control. Modeling was carried out on the 15th day; and the dry eye rat models were screened based on tear film break-up time (BUT), fluorescein sodium staining of corneal, and Schirmer's test I for tear secretion. Tear film break-up time (BUT) was used to assess the tear film stability: 1 μL of 1% fluorescein sodium solution was instilled into the conjunctival sac of the mouse, and the mouse was held and blinked artificially three times; the upper and lower eyelids of the mouse were then separated; and the tear film was observed under cobalt blue filter on a slit lamp; the tear film break-up time was recorded as the number of seconds that elapse between the last blink and the appearance of the first dry spot in the tear film of the cornea; each eye was measured three times, and the average of the three measurements was recorded in seconds.” for “control.”

The mark [4] stands for this setting: 0 d (baseline), drug treatment group, 0.1% eye drops.
Where [5] appears, read: 4 d, 0.1% eye drops four times a day.
Where [6] appears, read: 7 d, 0.1% eye drops four times a day.

For “TAT-N16 peptide: cell-penetrating artificial peptide, sequence SEQ ID NO: 2, constructed by linking the peptide N16 to a TAT sequence; P55PIK inhibitor (YGRKKRRQRRRMMPYSTELIFYIEMDP)”, the Corneal fluorescein staining scores (x ± s) worked out at 8.29 ± 1.31 in assay [1] (setting [4]), 4.12 ± 0.81 in assay [1] (setting [5]) and 2.79 ± 1.25 in assay [1] (setting [6]). The “Corneal fluorescein staining score compared with blank control group, model control group and solvent control group” value is listed as “significantly lower” in assay [1] (4th day of treatment) and “significantly lower” in assay [1] (7 days of continuous treatment, P<0.05). In addition, the “Density of conjunctival goblet cells compared with blank control group and solvent control group” value in assay [2] (7 days of continuous treatment, P<0.01, FIG. 4) was “significantly higher”. The “Number of conjunctival goblet cells (PAS-stained paraffin sections of the conjunctival fornix)” value in assay [2] (after treatment with the eye drops) is on record as “increased significantly”. The “Tear film break-up time (BUT) values (x ± s)” value is given as 3.49 ± 0.43 s in assay [3] (setting [4]), 4.82 ± 0.57 s in assay [3] (setting [5]) and 5.99 ± 0.55 s in assay [3] (setting [6]). Moreover, the “Tear film break-up time compared with blank control group, model control group and solvent control group” value in assay [3] (4th day of treatment) is on record as “significantly longer”; in assay [3] (7 days of continuous treatment, P=0.007), “significantly longer”.
